Test results taken from patent US10561708B2, “Anti-tumor therapy” (The University of Chicago, priority 2013, dated 2020).

Columns and labels:
CWR-22RV1 cells = assay: Clonogenic survival with ionizing radiation with or w/o SAR302503; assay type: cell-based; settings: 0.5 μM SAR302503, 2 or 5 Gy
Method: (§1) These cell lines were characterized for relative radioresistance using a clonogenic assay. Briefly, the cells were cultured in their appropriate media at 5% CO2 at 37° C. Optimal cell plating concentrations for a p60 dish were determined for each cell line. The majority of cell lines were plated in triplicate at concentrations of 100 cells/plate for control, 1000 cells/plate for 2 Gy, 2000 cells/plate for 5 Gy, and 3000 cells/plate for 8 Gy. Plates were irradiated 24 hours after plating with either 2, 5, or 8 Gy using a irradiated using a Nordion Gammacell ^60Co irradiator operating at a dose rate of ˜18 Gy/minute. Cells were allowed to grow for 10-21 days (depending on the cell line) until colonies were >50 cells. Plates were then fixed with formalin and stained with crystal violet. Colonies with more than 50 cells were counted. Clonogenic survival for Clonogenic data was obtained for all cell lines tested in screen.
(§2) To determine the potential therapeutic value of targeting the JAK/STAT pathway in prostate cancer, the cells were exposed to the specific JAK2 inhibitor SAR302503. Since it is expected that the greatest value of inhibiting the JAK/STAT pathway is in combination with other toxic insults we evaluated the effect of ionizing radiation used in the treatment of CRPC, and SAR302503 in the genetically related CWR lines (FIG. 2). […]

CWR-R1 cells = assay: as above; assay type: cell-based; settings: 0.5 μM SAR302503, 2 or 5 Gy
Method: as §1, §2

CWR-22RV1 xenografts = assay: Xenograft tumor growth in nude mice; assay type: in vivo
Method: (§3) To determine the potential therapeutic value of targeting the JAK/STAT pathway in prostate cancer, the cells were exposed to the specific JAK2 inhibitor SAR302503. Since it is expected that the greatest value of inhibiting the JAK/STAT pathway is in combination with other toxic insults we evaluated the effect of ionizing radiation used in the treatment of CRPC, and SAR302503 in the genetically related CWR lines (FIG. 2). Cells were plated in p60 dishes with or w/o 0.5 μM of SAR302503 and irradiated with 2 or 5 Gy (or left un-irradiated). Colonies counting and estimation of survival fractions were performed as described elsewhere (Khodarev et. al., 2007, Cancer Research). […] To extend these observations in preclinical animal models we established xenografts of CWR-R1 and CWR-22RV1. For this purpose 10^7 cells were injected in the right flank of each nude mice (5 animals per group) and when tumors reached 200 mm^3 in volume mice were either left un-treated, or treated with SAR302503 (120 mg/kg, once a day, 4 days) or irradiated locally (2×10 Gy) or subjected to combined treatments with SAR302503 and IR. […] At the same tumors treatment by SAR302503 alone led to the 4-days growth delay compared with control tumors. These effects were not observed in CWRR1. Molecular differences between two tumors are currently under investigation. The difference between CWR-R1 and CWR-22RV1 is especially noteworthy since they are isogenic, castrate resistant, and carry both native and splice variant androgen receptor, which is reminiscent of the findings in human prostate cancer specimens.

CWR-R1 xenografts = assay: Xenograft tumor growth in nude mice; assay type: in vivo; settings: CWRR1
Method: as §3

Q: Which “enhancement of effects of IR (survival fraction, colonies)” value (CWR-22RV1 cells) does the source give for `Cc1cnc(Nc2ccc(OCCN3CCCC3)cc2)nc1Nc1cccc(S(=O)(=O)NC(C)(C)C)c1` [SAR302503] here?
A: Its value is “significantly enhanced”.

Q: What about the “enhancement of cytotoxic activity of IR (survival fraction, colonies)” value (CWR-R1 cells) of the same compound?
A: Its value is “not enhanced”.

Q: And the “tumor growth, combined treatment with IR” value (CWR-22RV1 xenografts; 120 mg/kg once a day 4 days + IR 2×10 Gy, by day 9 after beginning of treatment)?
A: Its value is “significant suppression of tumor growth”.

Q: What about the “growth delay compared with control tumors, inhibitor alone” value (CWR-22RV1 xenografts; 120 mg/kg, once a day, 4 days) of the same compound?
A: The value was 4 days.

Q: And the “tumor growth, combined treatment with IR” value (CWR-R1 xenografts; 120 mg/kg once a day 4 days + IR 2×10 Gy)?
A: Its value is “not observed”.

Q: And the “growth delay compared with control tumors, inhibitor alone” value (CWR-R1 xenografts; 120 mg/kg, once a day, 4 days)?
A: Its value is “not observed”.
